Structures are written as SMILES. Positions count from the first letter of the chain named.

The record followed here is paper PMC10675840, “Structure-function analysis of ceTIR-1/hSARM1 explains the lack of Wallerian axonal degeneration in C. elegans” (Cell reports, 2023).

Common to all, as to assay: HPLC NAD+ consumption, Michaelis-Menten fit
What all share (assay type): biochemical
Holding throughout (settings): […] C, […] min, pH […]

Assay [1] has as its target T1, ceTIR-1 (Caenorhabditis elegans, UniProt Q86DA5, R828K).
T1 construct: gene tir-1; near-intact ARM-SAM-SAM-TIR, residues 162-872 (HMD...QQR), N-terminal 6xHis + TEV site, HEK293F expression, mostly 9-mer ring, partly dissociated
T1 sequence (Q86DA5 216-926 R828K): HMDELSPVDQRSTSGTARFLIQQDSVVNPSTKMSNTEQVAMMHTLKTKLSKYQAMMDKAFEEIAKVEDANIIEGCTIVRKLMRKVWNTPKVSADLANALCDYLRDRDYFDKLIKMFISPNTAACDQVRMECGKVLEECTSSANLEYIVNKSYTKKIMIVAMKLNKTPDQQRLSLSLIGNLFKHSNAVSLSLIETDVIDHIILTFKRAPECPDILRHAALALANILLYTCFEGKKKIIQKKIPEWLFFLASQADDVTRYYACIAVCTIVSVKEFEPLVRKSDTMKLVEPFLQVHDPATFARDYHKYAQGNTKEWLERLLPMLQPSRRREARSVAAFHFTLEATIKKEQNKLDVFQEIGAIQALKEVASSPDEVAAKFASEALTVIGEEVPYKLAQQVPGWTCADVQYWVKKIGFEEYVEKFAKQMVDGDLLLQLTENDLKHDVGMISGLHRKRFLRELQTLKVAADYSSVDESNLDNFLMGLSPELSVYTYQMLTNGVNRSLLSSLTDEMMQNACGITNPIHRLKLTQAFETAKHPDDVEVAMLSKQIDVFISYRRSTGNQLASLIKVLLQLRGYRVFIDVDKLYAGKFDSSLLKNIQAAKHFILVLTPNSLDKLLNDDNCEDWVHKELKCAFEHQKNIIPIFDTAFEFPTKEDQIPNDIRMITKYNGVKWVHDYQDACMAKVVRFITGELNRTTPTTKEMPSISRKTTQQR

The target in assay [2] is T2, ceTIR-1 (Caenorhabditis elegans, UniProt Q86DA5, D888E).
T2 construct: gene tir-1; near-intact ARM-SAM-SAM-TIR, residues 162-872 (HMD...QQR), N-terminal 6xHis + TEV site, HEK293F expression, mostly 9-mer ring, partly dissociated
T2 sequence (Q86DA5 216-926 D888E): T1 sequence (Q86DA5 216-926 R828K) with K613R, D673E

Assay [3] deals with T3, ceTIR-1 (Caenorhabditis elegans, UniProt Q86DA5, F863W).
T3 construct: gene tir-1; near-intact ARM-SAM-SAM-TIR, residues 162-872 (HMD...QQR), N-terminal 6xHis + TEV site, HEK293F expression, mostly 9-mer ring, partly dissociated
T3 sequence (Q86DA5 216-926 F863W): T1 sequence (Q86DA5 216-926 R828K) with K613R, F648W

For `NC(=O)c1ccc[n+]([C@@H]2O[C@H](COP(=O)(O)OP(=O)(O)OC[C@H]3O[C@@H](n4cnc5c(N)ncnc54)[C@H](O)[C@@H]3O)[C@@H](O)[C@H]2O)c1` [NAD^+], the Km result in assay [1], in assay [2] and in assay [3] was “none of these substitutions had any significant effect on Km” each time.
